Measurements: US10363245B2, “Methods for treating CNS lesions” (THE BOARD OF REGENTS OF THE UNIVERSITY OF TEXAS SYSTEM, priority 2017, dated 2019)

Legend:
[1] = tested on: MS patients; assay: Stage 1A clinical study: single 1000 mg IV ACZ bolus, cerebral blood flow by pCASL MRI
[2] = tested on: MS patients; assay: Stage 1B dose-escalation study: twice daily oral ACZ, cerebral blood flow by pCASL MRI, DTI and T2 relaxometry
[3] = tested on: healthy controls; settings: historical reports; cited from earlier work
[4] = Subj 001, oral 1000 mg BID for 2 weeks, versus baseline

SMILES: CC(=O)Nc1nnc(S(N)(=O)=O)s1 [ACZ, acetazolamide]
- time for global CBF to return near baseline ([1]; after IV ACZ, MS patients): 120 min
- change in global cerebral perfusion (pCASL) ([1]; following IV ACZ): Rapid increases
- duration of increases in CBF above baseline ([1]; single 1000 mg IV bolus, regardless of region): up to 180 minutes
- tolerability of single IV bolus ([1]; single bolus of IV ACZ, five MS patients): generally well tolerated without serious AEs
- CBF in the region with the larger T2 to T1 mismatch (qualitative pCASL) [2, 4]: increased
- qualitative DTI and T2 relaxometry measures [2, 4]: changed little
- potential for tachyphylaxis ([2]; oral, 1000 mg twice daily): limited if any potential for tachyphylaxis
- sustained increases in global CBF ([2]; oral, 1000 mg twice daily): 10-25%
- tolerability of oral ACZ ([2]; oral, 1000 mg twice daily): well tolerated, with minimal reported adverse events
- time for cerebral blood flow (CBF) to return near baseline [3]: ≤ 60 min
